Laboratory results: the kinase profiling compilation of Christmann-Franck et al. (2016)
Each block holds one molecule with its values, some of them ahead of it.

How the values were obtained:
Assay in all cases: KINOMEscan competition binding
Conditions in all cases: compound 10.0 µM
AXL (human) = AXL (human) (UniProt P30530)
BLK (human) = BLK (human) (UniProt P51451)
BMPR1B (human) = BMPR1B (human) (UniProt O00238)
CAMK1D (human) = CAMK1D (human) (UniProt Q8IU85)
CAMKK2 (human) = CAMKK2 (human) (UniProt Q96RR4)
CDKL2 (human) = CDKL2 (human) (UniProt Q92772)
CHUK (human) = CHUK (human) (UniProt O15111)
CHUK (human), sequence (O15111 whole entry, looked up): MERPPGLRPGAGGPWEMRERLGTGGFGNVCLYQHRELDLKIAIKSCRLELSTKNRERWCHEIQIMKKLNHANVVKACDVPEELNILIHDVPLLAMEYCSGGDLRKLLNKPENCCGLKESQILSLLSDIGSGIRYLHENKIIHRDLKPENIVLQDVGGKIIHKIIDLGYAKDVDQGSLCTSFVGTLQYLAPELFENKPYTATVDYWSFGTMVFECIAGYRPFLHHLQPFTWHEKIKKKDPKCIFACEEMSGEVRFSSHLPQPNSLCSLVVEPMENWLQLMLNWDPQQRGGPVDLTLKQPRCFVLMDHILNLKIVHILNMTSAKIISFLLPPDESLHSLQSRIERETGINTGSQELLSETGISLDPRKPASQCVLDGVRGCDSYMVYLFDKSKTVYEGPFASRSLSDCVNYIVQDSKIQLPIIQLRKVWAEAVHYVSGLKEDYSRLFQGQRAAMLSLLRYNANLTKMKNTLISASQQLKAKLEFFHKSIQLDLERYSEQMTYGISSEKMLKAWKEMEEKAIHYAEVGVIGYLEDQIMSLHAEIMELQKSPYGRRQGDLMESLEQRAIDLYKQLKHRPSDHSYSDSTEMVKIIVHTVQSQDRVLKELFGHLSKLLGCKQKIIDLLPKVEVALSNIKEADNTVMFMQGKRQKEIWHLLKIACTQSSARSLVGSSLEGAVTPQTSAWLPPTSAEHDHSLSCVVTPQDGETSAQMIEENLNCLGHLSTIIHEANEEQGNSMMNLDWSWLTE

CLK1 (human) = CLK1 (human) (UniProt P49759)
CSNK1E (human) = CSNK1E (human) (UniProt P49674)
CSNK1E (human), sequence (P49674 whole entry, looked up): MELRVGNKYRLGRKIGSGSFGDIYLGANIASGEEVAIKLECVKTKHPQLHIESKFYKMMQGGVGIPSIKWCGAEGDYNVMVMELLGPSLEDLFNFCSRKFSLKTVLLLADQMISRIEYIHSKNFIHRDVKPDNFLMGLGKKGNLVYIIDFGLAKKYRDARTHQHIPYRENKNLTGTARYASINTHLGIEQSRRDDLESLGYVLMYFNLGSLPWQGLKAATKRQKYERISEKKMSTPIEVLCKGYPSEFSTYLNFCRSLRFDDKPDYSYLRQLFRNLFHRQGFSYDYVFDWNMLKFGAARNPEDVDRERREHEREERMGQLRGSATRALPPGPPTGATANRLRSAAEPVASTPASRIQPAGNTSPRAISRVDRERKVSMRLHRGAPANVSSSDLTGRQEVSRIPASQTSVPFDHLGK

CSNK1G2 (human) = CSNK1G2 (human) (UniProt P78368)
DAPK1 (human) = DAPK1 (human) (UniProt P53355)
DAPK3 (human) = DAPK3 (human) (UniProt O43293)
DAPK3 (human), sequence (O43293 whole entry, looked up): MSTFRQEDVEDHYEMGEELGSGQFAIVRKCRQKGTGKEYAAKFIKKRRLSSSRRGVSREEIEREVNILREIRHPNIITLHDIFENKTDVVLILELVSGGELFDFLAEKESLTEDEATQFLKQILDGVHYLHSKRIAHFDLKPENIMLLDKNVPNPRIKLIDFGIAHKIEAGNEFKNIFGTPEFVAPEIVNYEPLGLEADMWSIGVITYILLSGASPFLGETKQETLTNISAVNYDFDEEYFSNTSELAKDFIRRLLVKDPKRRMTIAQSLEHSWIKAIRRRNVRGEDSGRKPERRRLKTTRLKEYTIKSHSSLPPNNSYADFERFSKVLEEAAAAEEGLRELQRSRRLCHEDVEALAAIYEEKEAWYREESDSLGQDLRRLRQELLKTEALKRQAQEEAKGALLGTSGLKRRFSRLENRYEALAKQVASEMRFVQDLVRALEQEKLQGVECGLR

DYRK1B (human) = DYRK1B (human) (UniProt Q9Y463)
DYRK1B (human), sequence (Q9Y463 whole entry, looked up): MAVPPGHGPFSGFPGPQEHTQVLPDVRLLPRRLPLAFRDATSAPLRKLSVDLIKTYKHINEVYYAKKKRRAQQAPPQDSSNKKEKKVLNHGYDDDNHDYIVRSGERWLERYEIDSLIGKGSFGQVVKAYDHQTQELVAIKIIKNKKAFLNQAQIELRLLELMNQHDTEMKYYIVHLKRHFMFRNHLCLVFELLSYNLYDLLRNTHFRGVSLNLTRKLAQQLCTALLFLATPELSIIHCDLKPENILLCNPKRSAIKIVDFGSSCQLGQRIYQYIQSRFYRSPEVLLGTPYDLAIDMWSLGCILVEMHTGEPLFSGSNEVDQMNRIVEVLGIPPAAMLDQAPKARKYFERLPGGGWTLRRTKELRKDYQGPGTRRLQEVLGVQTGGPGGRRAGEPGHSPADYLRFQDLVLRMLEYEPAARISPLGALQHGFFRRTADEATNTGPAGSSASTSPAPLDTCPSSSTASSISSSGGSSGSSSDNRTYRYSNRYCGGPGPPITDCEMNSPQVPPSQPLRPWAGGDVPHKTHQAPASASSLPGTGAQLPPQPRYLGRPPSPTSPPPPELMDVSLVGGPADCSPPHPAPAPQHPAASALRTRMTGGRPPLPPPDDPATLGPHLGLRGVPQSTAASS

EPHA5 (human) = EPHA5 (human) (UniProt P54756)
EPHA6 (human) = EPHA6 (human) (UniProt Q9UF33)
[1] = system: FLT3 (human), P36888 [K663Q]
HIPK1 (human) = HIPK1 (human) (UniProt Q86Z02)
[2] = biological target: JAK3 JH1 catalytic (human) (UniProt P52333)
KDR (human) = KDR (human) (UniProt P35968)
KIT (human) = KIT (human) (UniProt P10721)
KIT (human), sequence (P10721 whole entry, looked up): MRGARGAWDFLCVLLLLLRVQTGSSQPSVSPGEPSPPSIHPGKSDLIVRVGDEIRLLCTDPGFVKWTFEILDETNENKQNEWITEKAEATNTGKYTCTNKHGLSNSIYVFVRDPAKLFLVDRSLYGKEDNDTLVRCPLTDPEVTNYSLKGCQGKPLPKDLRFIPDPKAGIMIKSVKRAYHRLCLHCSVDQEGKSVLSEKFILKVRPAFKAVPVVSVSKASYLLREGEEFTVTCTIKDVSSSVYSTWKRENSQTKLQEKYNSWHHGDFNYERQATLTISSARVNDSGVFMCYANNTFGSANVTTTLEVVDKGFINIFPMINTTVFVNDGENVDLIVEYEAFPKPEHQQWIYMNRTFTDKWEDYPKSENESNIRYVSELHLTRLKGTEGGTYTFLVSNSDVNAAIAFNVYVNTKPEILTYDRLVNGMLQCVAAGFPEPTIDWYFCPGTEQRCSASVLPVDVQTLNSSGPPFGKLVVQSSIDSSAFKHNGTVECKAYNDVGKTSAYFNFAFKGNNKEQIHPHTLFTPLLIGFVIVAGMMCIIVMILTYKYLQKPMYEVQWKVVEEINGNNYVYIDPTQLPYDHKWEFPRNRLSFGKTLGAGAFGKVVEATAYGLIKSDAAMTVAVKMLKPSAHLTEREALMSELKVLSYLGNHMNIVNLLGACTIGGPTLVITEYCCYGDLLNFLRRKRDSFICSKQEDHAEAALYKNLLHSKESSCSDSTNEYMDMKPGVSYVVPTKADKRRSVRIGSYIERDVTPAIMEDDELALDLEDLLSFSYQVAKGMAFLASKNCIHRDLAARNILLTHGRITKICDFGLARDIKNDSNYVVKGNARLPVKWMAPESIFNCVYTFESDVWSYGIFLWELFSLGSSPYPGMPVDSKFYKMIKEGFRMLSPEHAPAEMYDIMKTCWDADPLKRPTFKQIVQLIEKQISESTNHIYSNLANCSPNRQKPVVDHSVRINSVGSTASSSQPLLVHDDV

LATS1 (human) = LATS1 (human) (UniProt O95835)
LYN (human) = LYN (human) (UniProt P07948)
MAP4K4 (human) = MAP4K4 (human) (UniProt O95819)
MAPK11 (human) = MAPK11 (human) (UniProt Q15759)
MST4 (human) = MST4 (human) (UniProt Q9P289)
MYLK4 (human) = MYLK4 (human) (UniProt Q86YV6)
NTRK3 (human) = NTRK3 (human) (UniProt Q16288)
NTRK3 (human), sequence (Q16288 whole entry, looked up): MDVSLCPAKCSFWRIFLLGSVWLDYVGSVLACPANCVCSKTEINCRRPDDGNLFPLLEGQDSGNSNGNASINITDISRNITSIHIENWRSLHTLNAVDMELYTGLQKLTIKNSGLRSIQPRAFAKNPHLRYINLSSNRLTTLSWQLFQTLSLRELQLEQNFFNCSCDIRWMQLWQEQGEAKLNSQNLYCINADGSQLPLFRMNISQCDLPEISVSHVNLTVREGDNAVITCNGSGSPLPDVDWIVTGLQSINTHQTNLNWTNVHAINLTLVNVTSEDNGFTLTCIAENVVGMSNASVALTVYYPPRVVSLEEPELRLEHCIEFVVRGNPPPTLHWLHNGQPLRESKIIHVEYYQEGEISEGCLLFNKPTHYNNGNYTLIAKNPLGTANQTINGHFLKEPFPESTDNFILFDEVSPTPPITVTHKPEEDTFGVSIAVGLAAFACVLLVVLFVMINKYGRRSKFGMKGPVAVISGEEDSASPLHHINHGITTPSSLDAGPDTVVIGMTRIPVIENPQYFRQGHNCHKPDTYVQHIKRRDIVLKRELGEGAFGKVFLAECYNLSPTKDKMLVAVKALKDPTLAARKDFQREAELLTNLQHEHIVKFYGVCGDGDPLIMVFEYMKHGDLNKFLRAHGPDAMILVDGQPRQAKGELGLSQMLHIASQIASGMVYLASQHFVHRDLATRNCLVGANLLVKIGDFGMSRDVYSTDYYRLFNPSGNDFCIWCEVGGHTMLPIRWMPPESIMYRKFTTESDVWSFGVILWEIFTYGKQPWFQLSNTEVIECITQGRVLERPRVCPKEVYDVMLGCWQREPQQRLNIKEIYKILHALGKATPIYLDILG

PAK2 (human) = PAK2 (human) (UniProt Q13177)
PAK2 (human), sequence (Q13177 whole entry, looked up): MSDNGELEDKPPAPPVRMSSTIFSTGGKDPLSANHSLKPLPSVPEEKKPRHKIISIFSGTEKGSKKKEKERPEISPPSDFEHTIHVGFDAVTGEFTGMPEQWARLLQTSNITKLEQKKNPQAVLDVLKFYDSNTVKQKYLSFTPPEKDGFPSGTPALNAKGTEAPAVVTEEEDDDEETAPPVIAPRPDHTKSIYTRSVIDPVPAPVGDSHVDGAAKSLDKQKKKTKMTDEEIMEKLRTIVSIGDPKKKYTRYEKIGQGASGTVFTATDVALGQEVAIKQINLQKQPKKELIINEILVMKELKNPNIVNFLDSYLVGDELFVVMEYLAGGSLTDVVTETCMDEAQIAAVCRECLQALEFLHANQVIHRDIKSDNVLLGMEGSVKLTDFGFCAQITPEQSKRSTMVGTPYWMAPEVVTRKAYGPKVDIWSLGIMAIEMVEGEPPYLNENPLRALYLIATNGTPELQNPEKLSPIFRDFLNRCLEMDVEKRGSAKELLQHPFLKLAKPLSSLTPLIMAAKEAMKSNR

PAK3 (human) = PAK3 (human) (UniProt O75914)
PRKAA1 (human) = PRKAA1 (human) (UniProt Q13131)
PRKACA (human) = PRKACA (human) (UniProt P17612)
PRKD1 (human) = PRKD1 (human) (UniProt Q15139)
RIOK2 (human) = RIOK2 (human) (UniProt Q9BVS4)
RIOK3 (human) = RIOK3 (human) (UniProt O14730)
RIPK1 (human) = RIPK1 (human) (UniProt Q13546)
RIPK2 (human) = RIPK2 (human) (UniProt O43353)
RPS6KA4 KD2 (human) = RPS6KA4 KD2 (human) (UniProt O75676)
STK25 (human) = STK25 (human) (UniProt O00506)
STK4 (human) = STK4 (human) (UniProt Q13043)
SYK (human) = SYK (human) (UniProt P43405)
TESK1 (human) = TESK1 (human) (UniProt Q15569)
TGFBR2 (human) = TGFBR2 (human) (UniProt P37173)

CAMK1D (human), sequence (Q8IU85 whole entry, looked up): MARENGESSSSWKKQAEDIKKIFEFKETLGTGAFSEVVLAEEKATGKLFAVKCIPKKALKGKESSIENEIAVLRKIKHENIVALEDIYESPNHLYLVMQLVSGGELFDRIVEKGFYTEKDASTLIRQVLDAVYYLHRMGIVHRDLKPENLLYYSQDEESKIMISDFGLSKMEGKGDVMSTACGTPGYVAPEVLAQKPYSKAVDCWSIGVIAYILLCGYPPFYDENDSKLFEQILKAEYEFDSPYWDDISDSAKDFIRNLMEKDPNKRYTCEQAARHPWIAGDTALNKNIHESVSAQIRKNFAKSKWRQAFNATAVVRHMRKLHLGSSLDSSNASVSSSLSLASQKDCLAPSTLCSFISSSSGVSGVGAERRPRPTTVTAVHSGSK

kinase still bound, per cent of control (AXL (human)): 83% | kinase still bound, per cent of control (BLK (human)): 49% | kinase still bound, per cent of control (BMPR1B (human)): 19% | kinase still bound, per cent of control (CAMK1D (human)): 100% | kinase still bound, per cent of control (CAMKK2 (human)): 100% | kinase still bound, per cent of control (CDKL2 (human)): 9.5% | kinase still bound, per cent of control (CHUK (human)): 67% | kinase still bound, per cent of control (CLK1 (human)): 100% | kinase still bound, per cent of control (CSNK1E (human)): 59% | kinase still bound, per cent of control (CSNK1G2 (human)): 92% | kinase still bound, per cent of control (DAPK1 (human)): 64% | kinase still bound, per cent of control (DAPK3 (human)): 90% | kinase still bound, per cent of control (DYRK1B (human)): 79% | kinase still bound, per cent of control (EPHA5 (human)): 90% | kinase still bound, per cent of control (EPHA6 (human)): 100% | kinase still bound, per cent of control [1]: 75% | kinase still bound, per cent of control (HIPK1 (human)): 45% | kinase still bound, per cent of control [2]: 92% | kinase still bound, per cent of control (KDR (human)): 74% | kinase still bound, per cent of control (KIT (human)): 48% | kinase still bound, per cent of control (LATS1 (human)): 90% | kinase still bound, per cent of control (LYN (human)): 77% | kinase still bound, per cent of control (MAP4K4 (human)): 86% | kinase still bound, per cent of control (MAPK11 (human)): 100% | kinase still bound, per cent of control (MST4 (human)): 67% | kinase still bound, per cent of control (MYLK4 (human)): 100% | kinase still bound, per cent of control (NTRK3 (human)): 2.1% | kinase still bound, per cent of control (PAK2 (human)): 80% | kinase still bound, per cent of control (PAK3 (human)): 82% | kinase still bound, per cent of control (PRKAA1 (human)): 87% | kinase still bound, per cent of control (PRKACA (human)): 100% | kinase still bound, per cent of control (PRKD1 (human)): 64% | kinase still bound, per cent of control (RIOK2 (human)): 43% | kinase still bound, per cent of control (RIOK3 (human)): 68% | kinase still bound, per cent of control (RIPK1 (human)): 100% | kinase still bound, per cent of control (RIPK2 (human)): 100% | kinase still bound, per cent of control (RPS6KA4 KD2 (human)): 31% | kinase still bound, per cent of control (STK25 (human)): 84% | kinase still bound, per cent of control (STK4 (human)): 100% | kinase still bound, per cent of control (SYK (human)): 91% | kinase still bound, per cent of control (TESK1 (human)): 100% | kinase still bound, per cent of control (TGFBR2 (human)): 32%
Structure (SMILES): COc1cc(N2CCN(C)CC2)ccc1Nc1ncc2c(n1)Nc1ccccc1NC2=O

kinase still bound, per cent of control (AXL (human)): 95% | kinase still bound, per cent of control (BLK (human)): 93% | kinase still bound, per cent of control (BMPR1B (human)): 100% | kinase still bound, per cent of control (CAMK1D (human)): 99% | kinase still bound, per cent of control (CAMKK2 (human)): 53% | kinase still bound, per cent of control (CDKL2 (human)): 81% | kinase still bound, per cent of control (CHUK (human)): 60% | kinase still bound, per cent of control (CLK1 (human)): 66% | kinase still bound, per cent of control (CSNK1E (human)): 56% | kinase still bound, per cent of control (CSNK1G2 (human)): 100% | kinase still bound, per cent of control (DAPK1 (human)): 82% | kinase still bound, per cent of control (DAPK3 (human)): 98% | kinase still bound, per cent of control (DYRK1B (human)): 92% | kinase still bound, per cent of control (EPHA5 (human)): 99% | kinase still bound, per cent of control (EPHA6 (human)): 100% | kinase still bound, per cent of control [1]: 92% | kinase still bound, per cent of control (HIPK1 (human)): 68% | kinase still bound, per cent of control [2]: 100% | kinase still bound, per cent of control (KDR (human)): 100% | kinase still bound, per cent of control (KIT (human)): 100% | kinase still bound, per cent of control (LATS1 (human)): 94% | kinase still bound, per cent of control (LYN (human)): 79% | kinase still bound, per cent of control (MAP4K4 (human)): 85% | kinase still bound, per cent of control (MAPK11 (human)): 100% | kinase still bound, per cent of control (MST4 (human)): 91% | kinase still bound, per cent of control (MYLK4 (human)): 100% | kinase still bound, per cent of control (NTRK3 (human)): 79% | kinase still bound, per cent of control (PAK2 (human)): 94% | kinase still bound, per cent of control (PAK3 (human)): 93% | kinase still bound, per cent of control (PRKAA1 (human)): 92% | kinase still bound, per cent of control (PRKACA (human)): 100% | kinase still bound, per cent of control (PRKD1 (human)): 87% | kinase still bound, per cent of control (RIOK2 (human)): 50% | kinase still bound, per cent of control (RIOK3 (human)): 77% | kinase still bound, per cent of control (RIPK1 (human)): 100% | kinase still bound, per cent of control (RIPK2 (human)): 100% | kinase still bound, per cent of control (RPS6KA4 KD2 (human)): 88% | kinase still bound, per cent of control (STK25 (human)): 89% | kinase still bound, per cent of control (STK4 (human)): 100% | kinase still bound, per cent of control (SYK (human)): 99% | kinase still bound, per cent of control (TESK1 (human)): 76% | kinase still bound, per cent of control (TGFBR2 (human)): 98%
Structure (SMILES): COc1cc(N2CCN(C)CC2)ccc1Nc1ncc2c(n1)N(C)c1ccccc1N(C)C2=O

kinase still bound, per cent of control (AXL (human)): 75% | kinase still bound, per cent of control (BLK (human)): 100% | kinase still bound, per cent of control (BMPR1B (human)): 91% | kinase still bound, per cent of control (CAMK1D (human)): 71% | kinase still bound, per cent of control (CAMKK2 (human)): 34% | kinase still bound, per cent of control (CDKL2 (human)): 100% | kinase still bound, per cent of control (CHUK (human)): 46% | kinase still bound, per cent of control (CLK1 (human)): 56% | kinase still bound, per cent of control (CSNK1E (human)): 91% | kinase still bound, per cent of control (CSNK1G2 (human)): 87% | kinase still bound, per cent of control (DAPK1 (human)): 58% | kinase still bound, per cent of control (DAPK3 (human)): 42% | kinase still bound, per cent of control (DYRK1B (human)): 63% | kinase still bound, per cent of control (EPHA5 (human)): 80% | kinase still bound, per cent of control (EPHA6 (human)): 97% | kinase still bound, per cent of control [1]: 93% | kinase still bound, per cent of control (HIPK1 (human)): 67% | kinase still bound, per cent of control [2]: 100% | kinase still bound, per cent of control (KDR (human)): 90% | kinase still bound, per cent of control (KIT (human)): 66% | kinase still bound, per cent of control (LATS1 (human)): 79% | kinase still bound, per cent of control (LYN (human)): 100% | kinase still bound, per cent of control (MAP4K4 (human)): 99% | kinase still bound, per cent of control (MAPK11 (human)): 85% | kinase still bound, per cent of control (MST4 (human)): 70% | kinase still bound, per cent of control (MYLK4 (human)): 100% | kinase still bound, per cent of control (NTRK3 (human)): 68% | kinase still bound, per cent of control (PAK2 (human)): 71% | kinase still bound, per cent of control (PAK3 (human)): 100% | kinase still bound, per cent of control (PRKAA1 (human)): 99% | kinase still bound, per cent of control (PRKACA (human)): 97% | kinase still bound, per cent of control (PRKD1 (human)): 12% | kinase still bound, per cent of control (RIOK2 (human)): 100% | kinase still bound, per cent of control (RIOK3 (human)): 52% | kinase still bound, per cent of control (RIPK1 (human)): 100% | kinase still bound, per cent of control (RIPK2 (human)): 92% | kinase still bound, per cent of control (RPS6KA4 KD2 (human)): 13% | kinase still bound, per cent of control (STK25 (human)): 80% | kinase still bound, per cent of control (STK4 (human)): 100% | kinase still bound, per cent of control (SYK (human)): 100% | kinase still bound, per cent of control (TESK1 (human)): 90% | kinase still bound, per cent of control (TGFBR2 (human)): 94%
Structure (SMILES): COc1cc(N2CCN(C)CC2)ccc1Nc1ncc2c(n1)N(C)c1sccc1C(=O)N2C
